Data: patent US12679827B2, “Pyrimidine compounds and their pharmaceutical uses” (National Health Research Institutes, priority 2020, dated 2026)

Columns and labels:
[1] = molecular target: T1, human Aurora A (amino acids 123-401) (Homo sapiens, UniProt O14965); test: Kinase-Glo Luminescent Kinase assay, in vitro inhibition of Aurora A kinase activity; type: biochemical; conditions: recombinant GST-tagged Aurora A, 5.0 μM ATP, 37° C., 120 minutes
T1 construct: human Aurora A (amino acids 123-401) was expressed in Sf9 insect cells; GST; made in house; host or cells: Sf9 insect cells
T1 sequence (O14965 123-401): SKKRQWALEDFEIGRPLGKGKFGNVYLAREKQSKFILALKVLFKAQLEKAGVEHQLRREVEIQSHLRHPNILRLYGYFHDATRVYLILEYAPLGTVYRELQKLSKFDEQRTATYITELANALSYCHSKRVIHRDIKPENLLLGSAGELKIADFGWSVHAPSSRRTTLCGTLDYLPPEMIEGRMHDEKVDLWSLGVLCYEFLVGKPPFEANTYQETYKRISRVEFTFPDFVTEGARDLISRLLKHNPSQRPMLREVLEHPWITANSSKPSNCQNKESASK
Outline: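 GST-tagged Aurora A (aa 123-401) expressed in Sf9 cells, incubated with compound at 100 nM, 5.0 μM ATP and 15 μM tetra(-LRRASLG) peptide in Tris-HCl pH 7.4 with MgCl2, BSA and DTT, 120 min at 37° C. Remaining ATP read by Kinase-Glo Plus luminescence after 20 min at 25° C.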

[2] = tested on: MYCN; test: Western blot, MYCN protein level in SK-N-BE(2) cells; type: cell-based, human; conditions: SK-N-BE(2) (neuroblastoma) cells; 50, 200, 500, 1000 nM; 24 hours; FIG. 1
Protocol: Compounds 41 and 86, both covered by Formula (I), were tested to assess their efficacies in reducing the level of cMYC oncoprotein in a human small-cell-lung-cancer (“SCLC”) cell line NCI-H82 (ATCC® HTB-175, USA) and the level of MYCN oncoprotein in a human neuroblastoma cell line SK-N-BE(2) (ATCC® CRL-2271, USA) as follows.
NCI-H82 was maintained in RPMI1640 medium (ThermoFisher Scientific, USA) supplemented with 10% fetal bovine serum (FBS, HyClone, USA) and antibiotics. SK-N-BE(2) was maintained in Minimum Essential Medium (MEM, ThermoFisher Scientific, USA) supplemented with 10% FBS (HyClone, USA) and antibiotics. The cancer cells from each cell line were treated with each of compounds 41 and 86 at 4 different compound concentrations, i.e., 50 nM, 200 nM, 500 nM, and 1000 nM. After 24 hours, each cancer cell solution was washed with 1× phosphate buffered saline (PBS), lysed in 1× Laemmli protein sample buffer, and boiled at 100° C. for 10 minutes. Each lysate was separated by SDS-PAGE, transferred to polyvinylidene fluoride (PVDF, Millipore, USA) membrane, and blotted with antibodies. Primary antibodies used for Western blotting were cMYC (Cell Signaling, Cat No. 5605S), MYCN (Cell Signaling, 9405S), PARP-1 (Abcam, ab32378), and GAPDH (Genetex, GTX100118). […]

[3] = tested on: NCI-H82; test: Small-cell-lung cancer cell proliferation inhibition assay (PrestoBlue), NCI-H82; type: cell-based; conditions: Homo sapiens, cMYC amplified SCLC cells, 72 hours
Protocol: Small cell lung cancer cells NCI-H82 (ATCC HTB-175, cMYC amplified), NCI-H446 (ATCC® HTB-171, cMYC amplified), and NCI-H69 (ATCC® HTB-119, MYCN amplified) were seeded at the density of 5000-10000 cells per well in 96-well plates. After 24 hours, the cancer cells were treated with each compound at various concentrations (0-10 μM) and then incubated for another 72 hours. IC50 values were computed based on duplicated 8-point titration.

[4] = tested on: NCI-H446; test: Proliferation inhibition of various cancer cells (PrestoBlue), NCI-H446; type: cell-based; conditions: Homo sapiens, Small cell lung cancer, 72 hours
Protocol: (§1) The efficacies of compounds 41 and 86 of Formula (I) in inhibiting proliferation of eleven types of cancer cells were determined using PrestoBlue™ Cell Viability Reagent (ThermoFisher Scientific, USA). The eleven types of cancer cells are small cell lung cancer, non-small cell lung cancer, liver cancer, pancreatic cancer, breast cancer, colon cancer, prostate cancer, neuroblastoma, brain cancer, leukemia, and cholangiocarcinoma.
(§2) More specifically, […], i.e., NCI-H82 (ATCC® HTB-175), NCI-H446 (ATCC® HTB-171), NCI-H69 (ATCC® HTB-119), NCI-H146 (ATCC® HTB-173), NCI-H1792 (ATCC® CRL-5895), NCI-H1299 (ATCC® CRL-5803), SNU-398 (ATCC® CRL-2233), PSN-1 (ATCC® CRL-3211), MIA PaCa-2 (ATCC® CRL-1420), MDA-MB-231 (ATCC® HTB-26), LOVO (ATCC® CCL-229), COLO 205 (ATCC® CCL-222), PC-3 (ATCC® CRL-1435), SK-N-BE(2) (ATCC® CRL-2271), D341 Med (ATCC® HTB-187), K562 (ATCC® CCL-243), MOLM-13 (DSMZ-German Collection of Microorganisms and Cell Cultures GmbH, ACC No. 554), and SNU-478 (KCLB 00478), were seeded at a density of 4000-10000 cells per well in 96-well plates for 24 hours. The cancer cells were then treated with each compound at various concentrations (0-10 μM), followed by incubation for another 72 hours. IC50 values were computed based on duplicated 8-point titration.

[5] = tested on: NCI-H146; test: Proliferation inhibition of various cancer cells (PrestoBlue), NCI-H146; type: cell-based; conditions: Homo sapiens, Small cell lung cancer, 72 hours
Protocol: as §1, §2

[6] = tested on: NCI-H1299; test: Proliferation inhibition of various cancer cells (PrestoBlue), NCI-H1299; type: cell-based; conditions: Homo sapiens, Non-small cell lung cancer, 72 hours
Protocol: as §1, §2

[7] = tested on: PSN-1; test: Proliferation inhibition of various cancer cells (PrestoBlue), PSN-1; type: cell-based; conditions: Homo sapiens, PSN1; Pancreatic cancer; 72 hours
Protocol: as §1, §2

[8] = tested on: MIA PaCa-2; test: Proliferation inhibition of various cancer cells (PrestoBlue), MIA PaCa-2; type: cell-based; conditions: Homo sapiens, Pancreatic cancer, 72 hours
Protocol: as §1, §2

[9] = tested on: MDA-MB-231; test: Proliferation inhibition of various cancer cells (PrestoBlue), MDA-MB-231; type: cell-based; conditions: Homo sapiens, Breast cancer, 72 hours
Protocol: as §1, §2

SMILES	IC50 [1]	protein level of MYCN [2]	IC50 [3]	IC50 [4]	IC50 [5]	IC50 [6]	IC50 [7]	IC50 [8]	IC50 [9]
CCN1CCN(c2cc(Nc3cc(C)[nH]n3)nc(N[C@H]3CCN(C(=O)c4ccc(Cl)cc4F)C3)n2)CC1 [Compound 41]	< 100 nM	greatly reduced	< 1000 nM	< 200 nM	< 2000 nM	< 1000 nM	< 2000 nM	< 1000 nM	< 300 nM
CCN1CCN(c2cc(Nc3cc(C)[nH]n3)nc(NC3CCN(C(=O)c4cccc(Cl)c4F)CC3)n2)CC1 [Compound 86]	< 100 nM	greatly reduced	< 1000 nM	< 200 nM	< 10000 nM	< 1000 nM	< 2000 nM	< 1000 nM	< 300 nM
